Test results taken from US20230128114A1, “METHODS AND COMPOSITIONS FOR TREATING OR PREVENTING AN INFLAMMATORY CONDITION” (priority 2020, published 2023).
Read-outs that look alike come from different tables or passages of the source.

Experiments:
[1] = tested on: human peripheral blood mononuclear cells (PBMCs) stimulated with bacterial lipopolysaccharide (LPS); assay: Cytokine release from LPS-stimulated human PBMCs (checkerboard, Luminex), Bliss synergy; type: cell-based; conditions: PBMC
Description: The anti-inflammatory activity the combination of CBD and hydroxychloroquine was assessed by determining cytokine release from human peripheral blood mononuclear cells (PBMCs) stimulated with bacterial lipopolysaccharide (LPS) using a Luminex based assay. A 96-well microtitre plate-based checkerboard assay with seven concentrations (including the no drug control) of CBD and hydroxychloroquine were assessed in combination was used to determine the drug-drug interaction. Briefly, frozen PMBCs from two independent donors were thawed, diluted in culture medium, seeded into 96-well microtitre plates and incubated at 37° C., 5% CO2 for 1 hour prior to the addition of test compounds. After the addition of the test compounds the cells were returned to the incubator for 1 hour, after which LPS was added to the wells. Plates were incubated at 37° C., 5% CO2 for 24 hours. After 24 hours, cell culture supernatants were removed and analysed for cytokine levels using Luminex methodology according to manufacturers' instructions. All values had the vehicle background subtracted prior to further analysis. Three plates were set up in parallel using the PBMCs from the same donor. Inhibition of cytokine release was determined relative to the no treatment control (i.e., that was stimulated with LPS) and averaged across the three replicates. A cytotoxicity assay using AlmarBlue with the identical plate set up was performed in parallel.
(§1) Drug synergy was determined using the Bliss Independence method where the predicted effect of the drug combination is calculated using the equation: […]
Synergy values for each combination of drug concentrations were calculated using the Excess Over Bliss method (the difference between the observed and predicted inhibition) described by, e.g., Liu et al. (2018, Statistics in Biopharmaceutical Research, 10: 112-122, where a value greater than 0 is indicative of synergy and the higher the value the stronger the synergy.

[2] = tested on: LPS-induced production of inflammatory cytokines; assay: LPS-induced sepsis in mice: synergy analysis (relative inhibition of cytokine release, Excess over Bliss); type: in vivo, C57BL/6 mice
Description: Male C57BL/6 mice weighing 10-20 g were used. Vehicle and active agents (i.e., CBD and hydroxychloroquine) alone or in combination were administered intraperitoneally (IP) (Table 4) or orally (Table 5) at 1 hour before LPS (100 μg/100 μL/mouse) injected intravenously (IV). At 2 hours after LPS injection, blood was collected from all mice by cardiac puncture, sera processed and assayed for biomarkers using either the Th17-plex for IL-1β, IL-2, IL-10, IL-12 (p70), IFN-γ and TNF-α by Luminex, plus IL-6 and D-dimer by ELISA, or the 23-plex for IL-1α, IL-1β, IL-2, IL-3, IL-4, IL-5, IL-6, IL-9, IL-10, IL-12(p40), IL-12(p70), IL-13, IL-17A, Eotaxin, G-CSF, GM-CSF, IFN-γ, KC, MCP-1(MCAF), MIP-1α, MIP-1β, RANTES, and TNF-α by Luminex, plus IL-6 by ELISA. ANOVA followed by Dunnett's test was applied for comparison between vehicle and treatment groups. p<0.05 is considered significant.
(§2) For synergy analysis, data were baseline subtracted using the cytokine levels of sham treated mice (i.e., no LPS injection), before normalising the values for each cytokine relative to maximum values across the groups. The normalised values were used to calculate the relative inhibition where a value of 1 represents complete inhibition and a value of 0 represents no inhibition. Synergy was calculated using the statistical methods described elsewhere herein.
as §1

[3] = tested on: LPS-induced pulmonary inflammation; assay: LPS-induced pulmonary inflammation: BALF cytokines, synergy analysis; type: in vivo, C57BL/B6 mice; conditions: HCQ 25 mg/kg, alone or combined, observed
Description: Male C57BL/B6 mice weighing 10-20 g were used. Vehicle and active agents (i.e., CBD and hydroxychloroquine) alone or in combination were administered intraperitoneally (IP) at 1 hour before LPS (˜80 mg/kg) was administered intratracheally. 24 hours after LPS injection, mice were anaesthetized with pentoparbital and 0.5 mL of PBS was administered twice through a tracheal cannula after which approximately 0.6 mL of broncheoalveolar lavage fluid (BALF) was obtained. The BALF was assayed for IL-1β, TNF-α, MCP-1(MCAF) and CXCL-1 by Luminex. ANOVA followed by Dunnett's test was applied for comparison between vehicle and treatment groups. p<0.05 was considered significant.
as §2, §1

[4] = CBD 10 mg/kg, HCQ 100 mg/kg, alone or combined, observed

In the case of `CCN(CCO)CCCC(C)Nc1ccnc2cc(Cl)ccc12` (stereo not shown) [HCQ], the inhibition at 0.63 µg/mL ([1]; Donor 1, HCQ 0.63 μg/mL alone, read-out: FIE (fractional inhibitory effect), IL-1α release) is reported as 3%, the inhibition at 0.63 µg/mL ([1]; Donor 1, HCQ 0.63 μg/mL alone, read-out: FIE (fractional inhibitory effect), IL-1β release) is reported as 8% and the inhibition at 0.63 µg/mL ([1]; Donor 1, HCQ 0.63 μg/mL alone, read-out: FIE (fractional inhibitory effect), IL-6 release) is reported as 12%. For the same compound, the inhibition at 0.63 µg/mL ([1]; Donor 1, HCQ 0.63 μg/mL alone, read-out: FIE (fractional inhibitory effect), TNF-α release) was 0%, the inhibition at 1.25 µg/mL ([1]; Donor 1, HCQ 1.25 μg/mL alone, read-out: FIE (fractional inhibitory effect), IL-1α release) was 1% and the inhibition at 1.25 µg/mL ([1]; Donor 1, HCQ 1.25 μg/mL alone, read-out: FIE (fractional inhibitory effect), IL-1β release) was 7%. The inhibition at 1.25 µg/mL ([1]; Donor 1, HCQ 1.25 μg/mL alone, read-out: FIE (fractional inhibitory effect), IL-6 release) was 0%, the inhibition at 1.25 µg/mL ([1]; Donor 1, HCQ 1.25 μg/mL alone, read-out: FIE (fractional inhibitory effect), TNF-α release) was 8% and the inhibition at 2.5 µg/mL ([1]; Donor 1, HCQ 2.50 μg/mL alone, read-out: FIE (fractional inhibitory effect), IL-1α release) was 12%. It also gave an inhibition at 2.5 µg/mL ([1]; Donor 1, HCQ 2.50 μg/mL alone, read-out: FIE (fractional inhibitory effect), IL-1β release) of 8%, an inhibition at 2.5 µg/mL ([1]; Donor 1, HCQ 2.50 μg/mL alone, read-out: FIE (fractional inhibitory effect), IL-6 release) of 10% and an inhibition at 2.5 µg/mL ([1]; Donor 1, HCQ 2.50 μg/mL alone, read-out: FIE (fractional inhibitory effect), MIP-1α release) of 0%. For the same compound, the inhibition at 2.5 µg/mL ([1]; Donor 1, HCQ 2.50 μg/mL alone, read-out: FIE (fractional inhibitory effect), TNF-α release) was 5%, the inhibition at 5 µg/mL ([1]; Donor 1, HCQ 5.00 μg/mL alone, read-out: FIE (fractional inhibitory effect), IL-1α release) was 24% and the inhibition at 5 µg/mL ([1]; Donor 1, HCQ 5.00 μg/mL alone, read-out: FIE (fractional inhibitory effect), IL-1β release) was 17%. For the same compound, the inhibition at 5 µg/mL ([1]; Donor 1, HCQ 5.00 μg/mL alone, read-out: FIE (fractional inhibitory effect), IL-6 release) was 8%, the inhibition at 5 µg/mL ([1]; Donor 1, HCQ 5.00 μg/mL alone, read-out: FIE (fractional inhibitory effect), TNF-α release) was 2% and the inhibition at 10 µg/mL ([1]; Donor 1, HCQ 10.00 μg/mL alone, read-out: FIE (fractional inhibitory effect), IL-1α release) was 50%. It also gave an inhibition at 10 µg/mL ([1]; Donor 1, HCQ 10.00 μg/mL alone, read-out: FIE (fractional inhibitory effect), IL-1β release) of 68%, an inhibition at 10 µg/mL ([1]; Donor 1, HCQ 10.00 μg/mL alone, read-out: FIE (fractional inhibitory effect), IL-6 release) of 0% and an inhibition at 10 µg/mL ([1]; Donor 1, HCQ 10.00 μg/mL alone, read-out: FIE (fractional inhibitory effect), TNF-α release) of 4%. It also gave an inhibition at 20 µg/mL ([1]; Donor 1, HCQ 20.00 μg/mL alone, read-out: FIE (fractional inhibitory effect), IL-1α release) of 54%, an inhibition at 20 µg/mL ([1]; Donor 1, HCQ 20.00 μg/mL alone, read-out: FIE (fractional inhibitory effect), IL-1β release) of 81% and an inhibition at 20 µg/mL ([1]; Donor 1, HCQ 20.00 μg/mL alone, read-out: FIE (fractional inhibitory effect), IL-6 release) of 12%. For the same compound, the inhibition at 20 µg/mL ([1]; Donor 1, HCQ 20.00 μg/mL alone, read-out: FIE (fractional inhibitory effect), MIP-1α release) was 0%, the inhibition at 20 µg/mL ([1]; Donor 1, HCQ 20.00 μg/mL alone, read-out: FIE (fractional inhibitory effect), TNF-α release) was 30% and the inhibition at 0.63 µg/mL ([1]; Donor 2, HCQ 0.63 μg/mL alone, read-out: FIE (fractional inhibitory effect), IL-1α release) was 7%. It also gave an inhibition at 0.63 µg/mL ([1]; Donor 2, HCQ 0.63 μg/mL alone, read-out: FIE (fractional inhibitory effect), IL-1β release) of 6%, an inhibition at 1.25 µg/mL ([1]; Donor 2, HCQ 1.25 μg/mL alone, read-out: FIE (fractional inhibitory effect), IL-1α release) of 11% and an inhibition at 2.5 µg/mL ([1]; Donor 2, HCQ 2.50 μg/mL alone, read-out: FIE (fractional inhibitory effect), IL-1α release) of 19%. The inhibition at 2.5 µg/mL ([1]; Donor 2, HCQ 2.50 μg/mL alone, read-out: FIE (fractional inhibitory effect), IL-1β release) was 7%, the inhibition at 5 µg/mL ([1]; Donor 2, HCQ 5.00 μg/mL alone, read-out: FIE (fractional inhibitory effect), IL-1α release) was 49% and the inhibition at 5 µg/mL ([1]; Donor 2, HCQ 5.00 μg/mL alone, read-out: FIE (fractional inhibitory effect), TNF-α release) was 2%. For the same compound, the inhibition at 10 µg/mL ([1]; Donor 2, HCQ 10.00 μg/mL alone, read-out: FIE (fractional inhibitory effect), IL-1α release) was 68%, the inhibition at 10 µg/mL ([1]; Donor 2, HCQ 10.00 μg/mL alone, read-out: FIE (fractional inhibitory effect), IL-6 release) was 11% and the inhibition at 10 µg/mL ([1]; Donor 2, HCQ 10.00 μg/mL alone, read-out: FIE (fractional inhibitory effect), MIP-1α release) was 0%. For the same compound, the inhibition at 10 µg/mL ([1]; Donor 2, HCQ 10.00 μg/mL alone, read-out: FIE (fractional inhibitory effect), TNF-α release) was 18%, the inhibition at 20 µg/mL ([1]; Donor 2, HCQ 20.00 μg/mL alone, read-out: FIE (fractional inhibitory effect), IL-1α release) was 63% and the inhibition at 20 µg/mL ([1]; Donor 2, HCQ 20.00 μg/mL alone, read-out: FIE (fractional inhibitory effect), IL-6 release) was 47%. The inhibition at 20 µg/mL ([1]; Donor 2, HCQ 20.00 μg/mL alone, read-out: FIE (fractional inhibitory effect), MIP-1α release) was 0%, the “IFN-γ, relative inhibition of cytokine release” value [2, 4] was 0.74 and the “IL-1β, relative inhibition of cytokine release” value [2, 4] was 0.01. The “IL-6, relative inhibition of cytokine release” value [2, 4] was 0.22, the “IL-12(p70), relative inhibition of cytokine release” value [2, 4] was 0.72 and the “TNF-α, relative inhibition of cytokine release” value [2, 4] was 0.55. The “IL-6, relative inhibition of cytokine release” value ([2]; CBD 25 mg/kg, HCQ 100 mg/kg, alone or combined, observed) was 0.22, the “Relative inhibition of IFN-γ release in vivo” value ([2]; HCQ 25 mg/kg alone) was 0.57 and the “Relative inhibition of IL-12(p70) release in vivo” value ([2]; HCQ 25 mg/kg alone) was 0.56. For the same compound, the “Relative inhibition of TNF-α release in vivo” value ([2]; HCQ 25 mg/kg alone) was 0.33, the “Relative inhibition of IL-6 release in vivo” value ([2]; HCQ 25 mg/kg alone (Table 21)) was 0.17 and the “Relative inhibition of IL-6 release in vivo” value ([2]; HCQ 25 mg/kg alone (Table 23)) was 0.17. For the same compound, the “IL-1β, relative inhibition of cytokine release (BALF)” value ([3]; CBD 1 mg/kg) was 0.20, the “MCP-1, relative inhibition of cytokine release (BALF)” value ([3]; CBD 1 mg/kg) was 0.09 and the “TNF-α, relative inhibition of cytokine release (BALF)” value ([3]; CBD 1 mg/kg) was 0.14. For the same compound, the “CXCL-1, relative inhibition of cytokine release (BALF)” value ([3]; CBD 10 mg/kg) was 0.35.
